From patent US10323022B2, “Pyrrolidinyl urea, pyrrolidinyl thiourea and pyrrolidinyl guanidine compounds as TrkA kinase inhibitors” (Array BioPharma Inc., priority 2011, dated 2019) come the findings set out here.

For this assay, the target named is TrkA (Homo sapiens (Human), UniProt P04629). In words: TrkA Omnia Assay. Format: biochemical. The note with it: averaged IC50; 20 nM enzyme, 500 μM ATP, 10 μM peptide substrate. The procedure, abridged:
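Recombinant TrkA (20 nM) preincubated 10 min at ambient temperature with compound, then Omnia Tyr Peptide #4 (10 μM) and ATP (500 μM) added in 25 mM MOPS pH 7.5, 5 mM MgCl2, 0.005% Triton X-100. Fluorescence (ex 360/em 485 nm) followed continuously for 70 min; IC50 from initial rates by 4- or 5-parameter logistic fit.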

TrkA, sequence (P04629 33-796): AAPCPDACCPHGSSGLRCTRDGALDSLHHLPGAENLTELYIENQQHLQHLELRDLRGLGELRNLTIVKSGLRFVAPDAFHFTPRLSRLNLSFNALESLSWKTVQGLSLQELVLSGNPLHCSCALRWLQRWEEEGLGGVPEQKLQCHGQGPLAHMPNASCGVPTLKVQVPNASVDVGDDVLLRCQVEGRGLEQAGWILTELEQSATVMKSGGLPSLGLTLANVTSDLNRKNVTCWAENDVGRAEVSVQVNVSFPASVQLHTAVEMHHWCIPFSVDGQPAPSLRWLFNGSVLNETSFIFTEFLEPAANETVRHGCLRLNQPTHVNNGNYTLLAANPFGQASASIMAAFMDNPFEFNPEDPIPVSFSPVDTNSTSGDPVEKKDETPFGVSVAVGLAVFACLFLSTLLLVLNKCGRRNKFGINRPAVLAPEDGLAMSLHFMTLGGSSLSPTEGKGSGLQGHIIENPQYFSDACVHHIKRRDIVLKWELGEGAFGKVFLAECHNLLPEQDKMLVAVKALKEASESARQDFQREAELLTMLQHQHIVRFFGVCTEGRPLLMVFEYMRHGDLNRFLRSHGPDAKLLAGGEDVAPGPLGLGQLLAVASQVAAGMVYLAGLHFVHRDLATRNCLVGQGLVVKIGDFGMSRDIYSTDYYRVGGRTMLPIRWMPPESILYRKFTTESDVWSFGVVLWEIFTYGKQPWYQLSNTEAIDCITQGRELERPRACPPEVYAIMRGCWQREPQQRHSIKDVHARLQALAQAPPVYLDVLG

In general, IC50 refers to the midpoint of a concentration-inhibition curve. High values mean weaker potency, low ones greater potency. `COCCN1C[C@@H](NC(=O)Nc2c3c(nn2-c2ccccc2)CS(=O)(=O)C3)[C@H](c2cc(F)cc(F)c2)C1` [Example 173, 1-((3S,4R)-4-(3,5-difluorophenyl)-1-(2-methoxyethyl)pyrrolidin-3-yl)-3-(5,5-dioxido-2-phenyl-4,6-dihydro-2H-thieno[3,4-c]pyrazol-3-yl)urea]: the half-maximal inhibitory concentration (IC50) is below 100 nM. In the case of `CCOc1nn(-c2ccccc2)c(NC(=O)N[C@@H]2CN(c3cn[nH]c3)C[C@H]2c2ccc(F)c(F)c2)c1C` [Example 216, 1-((3S,4R)-4-(3,4-difluorophenyl)-1-(1H-pyrazol-4-yl)pyrrolidin-3-yl)-3-(3-ethoxy-4-methyl-1-phenyl-1H-pyrazol-5-yl)urea], the IC50 was below 100 nM.

The molecule `COCCN1C[C@@H](NC(=O)Nc2c(C)c(-c3cnc(C)cn3)nn2C)[C@H](c2ccc(F)c(F)c2)C1` [Example 153, 1-((3S,4R)-4-(3,4-difluorophenyl)-1-(2-methoxyethyl)pyrrolidin-3-yl)-3-(1,4-dimethyl-3-(5-methylpyrazin-2-yl)-1H-pyrazol-5-yl) urea] displayed an IC50 of 100 to 1000 nM. To `COCCN1C[C@@H](NC(=O)Nc2c(F)c(-c3cnn(C)c3)nn2-c2ccccc2)[C@H](c2cncc(F)c2)C1` [Example 432, 1-(4-fluoro-1′-methyl-1-phenyl-1H,1′H-[3,4′-bipyrazol]-5-yl)-3-((3S,4R)-4-(5-fluoropyridin-3-yl)-1-(2-methoxyethyl)pyrrolidin-3-yl)urea] belongs 100 to 1000 nM; to `COCCN1C[C@@H](NC(=O)Nc2c(C(F)(F)F)c(OC)nn2-c2ccccc2)[C@H](c2ccc(F)c(F)c2)C1` [Example 605, 1-((3S,4R)-4-(3,4-difluorophenyl)-1-(2-methoxyethyl)pyrrolidin-3-yl)-3-(3-methoxy-1-phenyl-4-(trifluoromethyl)-1H-pyrazol-5-yl)urea], below 100 nM; to `CCOc1nn(-c2ccccc2)c(NC(=O)N[C@@H]2CN(c3ccccc3OC)C[C@H]2c2ccccc2)c1C` [Example 237, 1-(3-ethoxy-4-methyl-1-phenyl-1H-pyrazol-5-yl)-3-((3S,4R)-1-(2-methoxyphenyl)-4-phenylpyrrolidin-3-yl)urea], 100 to 1000 nM. To `COCCN1C[C@@H](NC(=O)Nc2c(Cl)c(OCC(C)(C)O)nn2-c2ccccc2)[C@H](c2cc(F)cc(F)c2)C1` [Example 370, 1-(4-chloro-3-(2-hydroxy-2-methylpropoxy)-1-phenyl-1H-pyrazol-5-yl)-3-((3S,4R)-4-(3,5-difluorophenyl)-1-(2-methoxyethyl)pyrrolidin-3-yl)urea] belongs below 100 nM; to `COCCOc1ccc(-c2cc(NC(=O)N[C@@H]3CN(CCOC)C[C@H]3c3ccc(F)c(F)c3)n(C)n2)cc1` [Example 130, 1-((3S,4R)-4-(3,4-difluorophenyl)-1-(2-methoxyethyl)pyrrolidin-3-yl)-3-(3-(4-(2-methoxyethoxy)phenyl)-1-methyl-1H-pyrazol-5-yl)urea], below 100 nM. For `COCCN1C[C@@H](NC(=O)Nc2cc(C(C)C)nn2-c2ccccc2)[C@H](c2cc(F)cc(F)c2)C1` [Example 85, 1-((3S,4R)-4-(3,5-difluoro-phenyl)-1-(2-methoxyethyl)pyrrolidin-3-yl)-3-(3-isopropyl-1-phenyl-1H-pyrazol-5-yl)urea] the value was below 100 nM; for `COCCN1C[C@@H](NC(=O)Nc2c3ccccc3nn2-c2ccccc2)[C@H](c2ccccc2)C1` [Example 389], below 100 nM; for `COCCN1C[C@@H](NC(=O)Nc2c3c(nn2-c2ccc(F)cc2)CCC3)[C@H](c2ccccc2)C1` (relative stereo) [Example 23, 1-(2-(4-fluorophenyl)-2,4,5,6-tetrahydrocyclopenta[c]pyrazol-3-yl)-3-(trans-1-(2-methoxyethyl)-4-phenylpyrrolidin-3-yl)urea], below 100 nM.

`COCCN1C[C@@H](NC(=O)Nc2c(Cl)c(C[C@H](C)O)nn2-c2ccccc2)[C@H](c2ccc(F)c(F)c2)C1` [Example 412, 1-(4-chloro-3-((S)-2-hydroxypropyl)-1-phenyl-1H-pyrazol-5-yl)-3-((3S,4R)-4-(3,4-difluorophenyl)-1-(2-methoxyethyl)pyrrolidin-3-yl)urea]: the half-inhibitory concentration (IC50) is below 100 nM. For `COCCN1C[C@@H](NC(=O)Nc2c(C)c(C(F)(F)CO)nn2-c2ccccc2)[C@H](c2cc(F)cc(F)c2)C1` [Example 283, 1-(3-(1,1-difluoro-2-hydroxyethyl)-4-methyl-1-phenyl-1H-pyrazol-5-yl)-3-((3S,4R)-4-(3,5-difluorophenyl)-1-(2-methoxyethyl)pyrrolidin-3-yl)urea] the value was below 100 nM; for `COCCN1C[C@@H](NC(=O)Nc2cc(C(C)C)nn2-c2ccccc2)[C@H](c2cccs2)C1` (relative stereo) [Example 44, trans-1-(3-isopropyl-1-phenyl-1H-pyrazol-5-yl)-3-(1-(2-methoxyethyl)-4-(thiophen-2-yl)pyrrolidin-3-yl)urea], below 100 nM.

Molecule `COCCN1C[C@@H](NC(=O)Nc2cc(-c3ccccc3F)nn2C)[C@H](c2ccc(F)c(F)c2)C1` [Example 115, 1-((3S,4R)-4-(3,4-difluorophenyl)-1-(2-methoxyethyl)pyrrolidin-3-yl)-3-(3-(2-fluoro-phenyl)-1-methyl-1H-pyrazol-5-yl)urea] came in with an IC50 below 100 nM.

As for `COCCN1C[C@@H](NC(=O)Nc2c(Cl)c([C@H]3C[C@@H](O)C3)nn2-c2ccccc2)[C@H](c2ccc(F)c(F)c2)C1` [Example 452, 1-(4-chloro-3-(cis-3-hydroxvcyclobutyl)-1-phenyl-1H-pyrazol-5-yl)-3-((3S,4R)-4-(3,4-difluorophenyl)-1-(2-methoxyethyl)pyrrolidin-3-yl)urea], the IC50 was below 100 nM. In turn, `COCCN1C[C@@H](NC(=O)Nc2c(C)c(-c3ccc(=O)n(C)c3)nn2-c2ccccc2)[C@H](c2ccc(F)cc2)C1` [Example 519, 1-((3S,4R)-4-(4-fluorophenyl)-1-(2-methoxyethyl)pyrrolidin-3-yl)-3-(4-methyl-3-(1-methyl-6-oxo-1,6-dihydropyridin-3-yl)-1-phenyl-1H-pyrazol-5-yl)urea] gave a half-maximal inhibitory concentration (IC50) below 100 nM. To `CCOc1nn(-c2ccccc2)c(NC(=O)N[C@@H]2CN(C(COC)COC)C[C@H]2c2ccc(F)c(F)c2)c1C` [Example 254, 1-((3S,4R)-4-(3,4-difluorophenyl)-1-(1,3-dimethoxypropan-2-yl)pyrrolidin-3-yl)-3-(3-ethoxy-4-methyl-1-phenyl-1H-pyrazol-5-yl)urea] belongs below 100 nM; to `CCOc1nn(-c2ccccc2)c(NC(=O)N[C@@H]2CN(CCOC)C[C@H]2c2ccc(F)cc2)c1C` [Example 147, 1-(3-ethoxy-4-methyl-1-phenyl-1H-pyrazol-5-yl)-3-((3S,4R)-4-(4-fluorophenyl)-1-(2-methoxyethyl)pyrrolidin-3-yl)urea], below 100 nM. `COCCN1C[C@@H](NC(=O)Nc2cc(C(C)(C)C)nn2C2CCOCC2)[C@H](c2ccccc2)C1` [Example 34, 1-(3-tert-butyl-1-(tetrahyro-2H-pyran-4-yl)-1H-pyrazol-5-yl)-3-(trans-1-(2-methoxyethyl)-4-phenylpyrrolidin-3-yl)urea] gave a concentration for half-maximal inhibition (IC50) of 1000 to 10000 nM. The molecule `COCCN1C[C@@H](NC(=O)Nc2c(C)c(OCC(C)(C)O)nn2-c2ccccc2)[C@H](c2cc(F)c(F)c(F)c2)C1` [Example 401, 1-(3-(2-hydroxy-2-methylpropoxy)-4-methyl-1-phenyl-1H-pyrazol-5-yl)-3-((3S,4R)-1-(2-methoxyethyl)-4-(3,4,5-trifluorophenyl)pyrrolidin-3-yl)urea] returned an IC50 below 100 nM. `COCCN1C[C@@H](NC(=S)Nc2c(C)c(-c3cnn(C)c3)nn2-c2ccccc2)[C@H](c2ccc(F)cc2)C1` [Example 633, 1-((3S,4R)-4-(4-fluorophenyl)-1-(2-methoxyethyl)pyrrolidin-3-yl)-3-(1′,4-dimethyl-1-phenyl-1H, 1′H-3,4′-bipyrazol-5-yl)thiourea] registered a half-inhibitory concentration (IC50) below 100 nM.

The molecule `COCCN1C[C@@H](NC(=O)Nc2c(C)c(-c3cnn(CCOC)c3)nn2-c2ccccc2)[C@H](c2ccc(F)c(F)c2)C1` [Example 348, 1-((3S,4R)-4-(3,4-difluorophenyl)-1-(2-methoxyethyl)pyrrolidin-3-yl)-3-(1′-(2-methoxyethyl)-4-methyl-1-phenyl-1H,1′H-[3,4′-bipyrazol]-5-yl)urea] had a concentration for half-maximal inhibition (IC50) below 100 nM.

For `COCCN1C[C@@H](NC(=O)Nc2c(C(N)=O)c(C(F)F)nn2-c2ccccc2)[C@H](c2ccc(F)c(F)c2)C1` [Example 628, 3-(difluoromethyl)-5-(3-((3S,4R)-4-(3,4-difluorophenyl)-1-(2-methoxyethyl)pyrrolidin-3-yl)ureido)-1-phenyl-1H-pyrazole-4-carboxamide], the concentration for half-maximal inhibition (IC50) is below 100 nM. `COCCN1C[C@@H](NC(=O)Nc2c(C)c(-c3cnn(C)c3)nn2-c2ccccc2F)[C@H](c2ccc(F)c(F)c2)C1` [Example 314, 1-((3S,4R)-4-(3,4-difluorophenyl)-1-(2-methoxyethyl)pyrrolidin-3-yl)-3-(1-(2-fluorophenyl)-1′,4-dimethyl-1H,1′H-[3,4′-bipyrazol]-5-yl)urea] yielded an IC50 below 100 nM. Molecule `COCCN1C[C@@H](NC(=O)Nc2c(C(F)(F)F)nn(C)c2-c2ccccc2)[C@H](c2ccc(F)c(F)c2)C1` [Example 646, 1-((3S,4R)-4-(3,4-difluorophenyl)-1-(2-methoxyethyl)pyrrolidin-3-yl)-3-(1-methyl-5-phenyl-3-(trifluoromethyl)-1H-pyrazol-4-yl)urea] returned an IC50 of 100 to 1000 nM. To `COCCN1C[C@@H](NC(=O)Nc2cc(-c3cccs3)nn2C)[C@H](c2cc(F)cc(F)c2)C1` [Example 99, 1-((3S,4R)-4-(3,5-difluorophenyl)-1-(2-methoxyethyl)pyrrolidin-3-yl)-3-(1-methyl-3-(thiophen-2-yl)-1H-pyrazol-5-yl)urea] belongs below 100 nM.
